Reference: BigSolDB 2.1

N[C@@H](Cc1ccc([N+](=O)[O-])cc1[N+](=O)[O-])C(=O)O
solubility (mole fraction)
Conditions	in 1,2-dichloroethane	in acetone	in ethanol	in ethyl acetate	in isopropanol	in methanol	in n-butanol	in n-propanol	in sec-butanol	in water
273.15 K	2.2e-09	1.58e-06	3.44e-05	–	1.51e-06	1.5e-05	3.84e-06	2.58e-06	6.49e-07	8.5e-08
278.15 K	–	1.64e-06	–	–	2.96e-06	4.12e-05	–	–	–	–
283.15 K	8.6e-09	1.72e-06	9.2e-05	–	5.45e-06	9.1e-05	3.91e-06	3.54e-06	6.79e-07	1.12e-06
288.15 K	–	1.91e-06	–	–	9.49e-06	0.000192	–	–	–	–
293.15 K	3.08e-08	2.15e-06	0.000195	–	1.56e-05	0.000365	3.99e-06	5.64e-06	6.92e-07	9.26e-06
298.15 K	–	2.56e-06	–	–	2.42e-05	0.000578	–	–	–	–
303.15 K	1.05e-07	3.06e-06	0.00035	9.1e-09	3.57e-05	0.000909	4.28e-06	1.01e-05	7.79e-07	5.12e-05
308.15 K	–	3.99e-06	–	–	5.03e-05	0.00123	–	–	–	–
313.15 K	3.27e-07	5.26e-06	0.00051	1.88e-07	6.78e-05	0.00155	5.01e-06	2.04e-05	9.45e-07	0.000189
318.15 K	–	7.14e-06	–	–	8.75e-05	0.00181	–	–	–	–
323.15 K	9.77e-07	1.01e-05	0.000671	1.88e-06	0.000109	0.00196	6.29e-06	4.55e-05	1.23e-06	0.000523
328.15 K	–	1.45e-05	–	–	0.00013	0.00197	–	–	–	–
333.15 K	2.69e-06	2.19e-05	0.000772	1.12e-05	0.00015	0.00198	8.34e-06	0.000113	1.71e-06	0.00107
338.15 K	–	–	–	–	0.000167	–	–	–	–	–
343.15 K	–	–	0.00079	3.58e-05	–	–	1.15e-05	0.000294	2.49e-06	0.00166
348.15 K	–	–	–	5.44e-05	–	–	–	–	–	–
353.15 K	–	–	0.000791	–	–	–	1.69e-05	0.000812	3.87e-06	0.00193
363.15 K	–	–	–	–	–	–	2.6e-05	0.00241	6.11e-06	0.00198
368.15 K	–	–	–	–	–	–	–	0.00424	–	0.00201
